These results are taken from ChEMBL document CHEMBL1151313, “Isolation and structure elucidation of new PKCalpha inhibitors from Pinus flexilis” (J Nat Prod, 1998).

For orientation: IC50 means the concentration that inhibits the measured activity by half.

The target of this assay is Protein kinase C alpha type (Homo sapiens, UniProt P17252). Briefly: Inhibition of human recombinant PKCalpha.
`O=C(CCc1ccc(O)c(O)c1)C[C@@H](O)CCc1ccc(O)c(O)c1` [HIRSUTANONOL]: the IC50 was 13.3 µM.
`O=C(/C=C/CCc1ccc(O)c(O)c1)CCc1ccc(O)c(O)c1` [DEHYDROHIRSUTANONOL]: the 50% inhibitory concentration (IC50) was 4.26 µM.
Regarding `O=C(CCc1ccc(O)c(O)c1)C[C@H](CCc1ccc(O)c(O)c1)O[C@@H]1OC[C@@H](O)[C@H](O)[C@H]1O` [OREGONIN], the IC50 was 18 µM.
With `OC[C@H]1O[C@@H](O[C@H](CCCCc2ccc(O)c(O)c2)CCc2ccc(O)c(O)c2)[C@H](O)[C@@H](O)[C@@H]1O`, the IC50 was 2.83 µM.
Take `Oc1ccc(CCCC[C@@H](O)CCc2ccc(O)c(O)c2)cc1O`: the IC50 is 4.81 µM.
